Data on 22 compounds can be found in ChEMBL document CHEMBL1132438, “Heterodimeric tacrine-based acetylcholinesterase inhibitors: investigating ligand-peripheral site interactions” (J Med Chem, 1999).

One assay concerns the target Butyrylcholinesterase (Rattus norvegicus, UniProt Q9JKC1).
A further assay concerns the target T1, Acetylcholinesterase (Rattus norvegicus, UniProt P37136).
T1 sequence (P37136 whole entry): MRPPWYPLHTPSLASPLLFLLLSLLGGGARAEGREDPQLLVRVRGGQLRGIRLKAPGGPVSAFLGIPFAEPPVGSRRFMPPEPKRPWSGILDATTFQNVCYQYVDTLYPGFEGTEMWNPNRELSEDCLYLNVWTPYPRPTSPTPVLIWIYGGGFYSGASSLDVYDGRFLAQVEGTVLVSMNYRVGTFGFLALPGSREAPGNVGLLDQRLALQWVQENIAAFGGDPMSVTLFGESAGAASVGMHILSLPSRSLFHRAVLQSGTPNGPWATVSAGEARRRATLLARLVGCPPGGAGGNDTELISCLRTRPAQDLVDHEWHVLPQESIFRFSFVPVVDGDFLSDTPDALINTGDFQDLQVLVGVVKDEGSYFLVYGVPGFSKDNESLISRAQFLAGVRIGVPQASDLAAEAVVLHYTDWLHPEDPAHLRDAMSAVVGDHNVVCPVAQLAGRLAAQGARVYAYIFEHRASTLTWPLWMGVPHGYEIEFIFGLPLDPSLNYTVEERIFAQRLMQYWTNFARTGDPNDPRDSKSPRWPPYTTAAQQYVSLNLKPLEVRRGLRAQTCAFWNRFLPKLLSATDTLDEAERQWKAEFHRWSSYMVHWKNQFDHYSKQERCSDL
The assay is described as follows: biochemical.

Chain of Butyrylcholinesterase (Q9JKC1 whole entry): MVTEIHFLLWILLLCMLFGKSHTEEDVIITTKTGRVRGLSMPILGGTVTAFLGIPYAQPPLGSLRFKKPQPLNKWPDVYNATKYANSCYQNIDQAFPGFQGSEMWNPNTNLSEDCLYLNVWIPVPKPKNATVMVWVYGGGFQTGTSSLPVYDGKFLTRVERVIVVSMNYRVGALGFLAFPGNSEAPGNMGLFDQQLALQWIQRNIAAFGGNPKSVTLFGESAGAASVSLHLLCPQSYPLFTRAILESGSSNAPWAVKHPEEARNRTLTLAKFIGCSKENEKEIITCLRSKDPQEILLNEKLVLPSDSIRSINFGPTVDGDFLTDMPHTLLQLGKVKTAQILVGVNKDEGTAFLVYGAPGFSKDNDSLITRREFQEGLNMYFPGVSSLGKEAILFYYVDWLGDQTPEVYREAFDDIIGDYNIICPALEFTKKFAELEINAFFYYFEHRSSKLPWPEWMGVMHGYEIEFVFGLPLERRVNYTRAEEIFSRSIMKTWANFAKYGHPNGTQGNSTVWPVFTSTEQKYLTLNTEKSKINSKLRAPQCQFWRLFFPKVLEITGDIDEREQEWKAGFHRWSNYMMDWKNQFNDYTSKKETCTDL
Description for Acetylcholinesterase: Inhibition of acetylcholinesterase activity in rat cerebral cortex homogenate, in the presence of a specific butyrylcholinesterase (BChE) inhibitor; ethopropazine
Description for Butyrylcholinesterase: Inhibition of rat serum butyrylcholinesterase, in the presence of a specific AChE inhibitor; BW284c51

One may read the IC50 as the concentration that inhibits the measured activity by half. Higher therefore signals weaker potency. For `NCCCCCCCCNc1c2c(nc3ccccc13)CCCC2`, the IC50 against Butyrylcholinesterase stood at 202 nM; at Acetylcholinesterase, 89.4 nM.

With `CN(C)CCCCCCCCNc1c2c(nc3ccccc13)CCCC2`, the IC50 on Butyrylcholinesterase was 170 nM; against Acetylcholinesterase, 47 nM.

With `c1ccc2c(NCCCCCCCCNc3c4c(nc5ccccc35)CCCC4)ccnc2c1`, the IC50 against Butyrylcholinesterase came out at 126 nM; against Acetylcholinesterase it was 8.8 nM.

Consider `NCCCCCCCCCNc1c2c(nc3ccccc13)CCCC2`, for which the IC50 at Butyrylcholinesterase was 687 nM; against Acetylcholinesterase, 131 nM.

`c1ccc2c(NCCCCCCCCCNc3c4c(nc5ccccc35)CCCC4)ccnc2c1`: the figures for the IC50 against Butyrylcholinesterase and at Acetylcholinesterase were 156 nM and 38.7 nM, respectively.

In the case of `CN(C)CCCCCCCNc1c2c(nc3ccccc13)CCCC2`, the IC50 stood at 143 nM on Butyrylcholinesterase and 52 nM against Acetylcholinesterase.

Consider `c1ccc2c(NCCCCCCCCNc3ccncc3)c3c(nc2c1)CCCC3`, for which the results for the IC50 at Butyrylcholinesterase and against Acetylcholinesterase were 157 nM and 13.6 nM, respectively.

On to `CN(C)CCCCCCCCCCNc1c2c(nc3ccccc13)CCCC2`, for which the IC50 against Butyrylcholinesterase was determined as 581 nM; on Acetylcholinesterase it was 45 nM.

`Nc1ccnc2ccccc12` [QUINOLIN-4-AMINE] yielded an IC50 against Acetylcholinesterase of 50700 nM. This lies in the double-digit micromolar range.

As for `c1ccc2c(NCCCCCCCNc3ccncc3)c3c(nc2c1)CCCC3`, the IC50 was found to be 302 nM against Butyrylcholinesterase and 12.8 nM on Acetylcholinesterase.

Regarding `NCCCCCCCNc1c2c(nc3ccccc13)CCCC2`, the IC50 was found to be 357 nM at Butyrylcholinesterase and 319 nM against Acetylcholinesterase.

As for `NCCCCCCCCCCCCNc1c2c(nc3ccccc13)CCCC2`, the IC50 on Butyrylcholinesterase is 791 nM; at Acetylcholinesterase, 180 nM.

On to `c1ccc2c(NCCCCCCCCCCCCNc3ccncc3)c3c(nc2c1)CCCC3`, for which the IC50 was 377 nM against Butyrylcholinesterase and 261 nM on Acetylcholinesterase.

For the compound `CN(C)CCCCCCCCCCCCNc1c2c(nc3ccccc13)CCCC2`, the IC50 against Butyrylcholinesterase came to 695 nM; against Acetylcholinesterase, 264 nM.

Turning to `CN(C)CCCCCCCCCNc1c2c(nc3ccccc13)CCCC2`, the IC50 against Butyrylcholinesterase is 237 nM; against Acetylcholinesterase, 71 nM.

Take `c1ccc2c(NCCCCCCCNc3c4c(nc5ccccc35)CCCC4)ccnc2c1`: the IC50 at Butyrylcholinesterase was determined as 110 nM; at Acetylcholinesterase, 10.1 nM.

With `c1ccc2c(NCCCCCCCCCCNc3ccncc3)c3c(nc2c1)CCCC3`, the IC50 against Butyrylcholinesterase was 427 nM; on Acetylcholinesterase it was 176 nM.

Regarding `c1ccc2c(NCCCCCCCCCNc3ccncc3)c3c(nc2c1)CCCC3`, the results for the IC50 against Butyrylcholinesterase and on Acetylcholinesterase were 200 nM and 83.6 nM, respectively.

Regarding `Nc1ccncc1` [DALFAMPRIDINE], the half-maximal inhibitory concentration (IC50) on Acetylcholinesterase is over 500000 nM.

For `Cc1cccc2c(NCCCCCCCCNc3c4c(nc5ccccc35)CCCC4)c3c(nc12)CCCC3`, the IC50 at Butyrylcholinesterase turned out to be 105 nM; on Acetylcholinesterase it was 7.8 nM.

As to `NCCCCCCCCCCNc1c2c(nc3ccccc13)CCCC2`, the results for the IC50 on Butyrylcholinesterase and against Acetylcholinesterase were 682 nM and 147 nM, respectively.

With `Cc1cccc2c(NCCCCCCCNc3c4c(nc5ccccc35)CCCC4)c3c(nc12)CCCC3`, half-maximal inhibition on Acetylcholinesterase (IC50) was put at 1.5 nM. This lies in the single-digit nanomolar range.
